Assays:
Experiment in all cases: relative viability (nuclei count vs DMSO), 5 days (fraction); higher = more cells survive
NCI-H1793 = test system: NCI-H1793
In short: (§1)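 After 5 days of treatment, lung cancer cells in 1536-well plates were fixed and stained in a single step (final 0.05% Triton X-100, 1% formaldehyde, 1 ug/ml Hoechst) and their nuclei counted on 4× images. Treatment had been applied by pin tool the day after seeding as one drug alone or as a fixed anchor-drug dose with five library-drug doses (not always all listed) in √10 steps. Relative viability is the nuclei count of treated wells divided by that of vehicle wells, and values are medians of duplicate plates.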

SW 900 = test system: SW 900
In short: as §1

LOU-NH91 = test system: LOU-NH91
In short: as §1

201T = test system: 201T
In short: as §1

NCI-H1563 = test system: NCI-H1563
In short: as §1

HCC-15 = test system: HCC-15
In short: as §1

NCI-H3122 = test system: NCI-H3122
In short: as §1

H3255 = test system: H3255
In short: as §1

NCI-H1734 = test system: NCI-H1734
In short: as §1

NCI-H2347 = test system: NCI-H2347
In short: as §1

COR-L23 = test system: COR-L23
In short: as §1

NCI-H647 = test system: NCI-H647
In short: as §1

NCI-H2405 = test system: NCI-H2405
In short: as §1

EPLC-272H = test system: EPLC-272H
In short: as §1

NCI-H520 = test system: NCI-H520
In short: as §1

UMC-11 = test system: UMC-11
In short: as §1

NCI-H322M = test system: NCI-H322M
In short: as §1

NCI-H1650 = test system: NCI-H1650
In short: as §1

NCI-H441 = test system: NCI-H441
In short: as §1

NCI-H2170 = test system: NCI-H2170
In short: as §1

PC-14 = test system: PC-14
In short: as §1

NCI-H2023 = test system: NCI-H2023
In short: as §1

Nc1ccn([C@@H]2O[C@H](CO)[C@@H](O)[C@@H]2O)c(=O)n1 [Cytarabine] + Cc1nc(Nc2ncc(C(=O)Nc3c(C)cccc3Cl)s2)cc(N2CCN(CCO)CC2)n1 [Dasatinib] (partner 0.075 µM)
relative viability (NCI-H1793; first compound 0.005 µM): 0.364
relative viability (NCI-H1793; first compound 0.01581 µM): 0.37
relative viability (NCI-H1793; first compound 0.05 µM): 0.387
relative viability (NCI-H1793; first compound 0.1581 µM): 0.257
relative viability (NCI-H1793; first compound 0.5 µM): 0.191
relative viability (SW 900; first compound 0.005 µM): 0.837
relative viability (SW 900; first compound 0.01581 µM): 0.446
relative viability (SW 900; first compound 0.05 µM): 0.314
relative viability (LOU-NH91; first compound 0.005 µM): 0.542
relative viability (LOU-NH91; first compound 0.01581 µM): 0.555
relative viability (LOU-NH91; first compound 0.05 µM): 0.422
relative viability (LOU-NH91; first compound 0.1581 µM): 0.416
relative viability (LOU-NH91; first compound 0.5 µM): 0.398
relative viability (201T; first compound 0.005 µM): 0.659
relative viability (201T; first compound 0.01581 µM): 0.642
relative viability (201T; first compound 0.05 µM): 0.709
relative viability (201T; first compound 0.1581 µM): 0.444
relative viability (201T; first compound 0.5 µM): 0.501
relative viability (NCI-H1563; first compound 0.005 µM): 0.506
relative viability (NCI-H1563; first compound 0.01581 µM): 0.466
relative viability (NCI-H1563; first compound 0.05 µM): 0.46
relative viability (NCI-H1563; first compound 0.1581 µM): 0.383
relative viability (NCI-H1563; first compound 0.5 µM): 0.393
relative viability (HCC-15; first compound 0.005 µM): 0.559
relative viability (HCC-15; first compound 0.01581 µM): 0.679
relative viability (HCC-15; first compound 0.05 µM): 0.683
relative viability (HCC-15; first compound 0.1581 µM): 0.479
relative viability (HCC-15; first compound 0.5 µM): 0.401
relative viability (NCI-H3122; first compound 0.005 µM): 0.807
relative viability (NCI-H3122; first compound 0.01581 µM): 0.76
relative viability (NCI-H3122; first compound 0.05 µM): 0.789
relative viability (NCI-H3122; first compound 0.1581 µM): 0.349
relative viability (NCI-H3122; first compound 0.5 µM): 0.17
relative viability (H3255; first compound 0.005 µM): 0.363
relative viability (H3255; first compound 0.01581 µM): 0.3
relative viability (H3255; first compound 0.05 µM): 0.273
relative viability (H3255; first compound 0.1581 µM): 0.199
relative viability (H3255; first compound 0.5 µM): 0.319
relative viability (NCI-H1734; first compound 0.005 µM): 0.419
relative viability (NCI-H1734; first compound 0.01581 µM): 0.221
relative viability (NCI-H1734; first compound 0.05 µM): 0.218
relative viability (NCI-H1734; first compound 0.1581 µM): 0.125
relative viability (NCI-H1734; first compound 0.5 µM): 0.113
relative viability (NCI-H2347; first compound 0.005 µM): 0.321
relative viability (NCI-H2347; first compound 0.01581 µM): 0.307
relative viability (NCI-H2347; first compound 0.05 µM): 0.241
relative viability (NCI-H2347; first compound 0.1581 µM): 0.274
relative viability (NCI-H2347; first compound 0.5 µM): 0.201
relative viability (COR-L23; first compound 0.005 µM): 0.405
relative viability (COR-L23; first compound 0.01581 µM): 0.312
relative viability (COR-L23; first compound 0.05 µM): 0.287
relative viability (COR-L23; first compound 0.1581 µM): 0.17
relative viability (COR-L23; first compound 0.5 µM): 0.14
relative viability (NCI-H647; first compound 0.005 µM): 0.104
relative viability (NCI-H647; first compound 0.01581 µM): 0.0553
relative viability (NCI-H647; first compound 0.05 µM): 0.0872
relative viability (NCI-H647; first compound 0.1581 µM): 0.0307
relative viability (NCI-H647; first compound 0.5 µM): 0.0339
relative viability (NCI-H2405; first compound 0.005 µM): 0.206
relative viability (NCI-H2405; first compound 0.01581 µM): 0.17
relative viability (NCI-H2405; first compound 0.05 µM): 0.167
relative viability (NCI-H2405; first compound 0.1581 µM): 0.144
relative viability (NCI-H2405; first compound 0.5 µM): 0.146
relative viability (EPLC-272H; first compound 0.005 µM): 0.304
relative viability (EPLC-272H; first compound 0.01581 µM): 0.241
relative viability (EPLC-272H; first compound 0.05 µM): 0.211
relative viability (EPLC-272H; first compound 0.1581 µM): 0.113
relative viability (EPLC-272H; first compound 0.5 µM): 0.0979
relative viability (NCI-H520; first compound 0.005 µM): 0.218
relative viability (NCI-H520; first compound 0.01581 µM): 0.199
relative viability (NCI-H520; first compound 0.05 µM): 0.263
relative viability (NCI-H520; first compound 0.1581 µM): 0.187
relative viability (NCI-H520; first compound 0.5 µM): 0.142
relative viability (UMC-11; first compound 0.005 µM): 0.279
relative viability (UMC-11; first compound 0.01581 µM): 0.298
relative viability (UMC-11; first compound 0.05 µM): 0.379
relative viability (UMC-11; first compound 0.1581 µM): 0.2
relative viability (UMC-11; first compound 0.5 µM): 0.169
relative viability (NCI-H322M; first compound 0.005 µM): 0.259
relative viability (NCI-H322M; first compound 0.01581 µM): 0.272
relative viability (NCI-H322M; first compound 0.05 µM): 0.26
relative viability (NCI-H322M; first compound 0.1581 µM): 0.243
relative viability (NCI-H322M; first compound 0.5 µM): 0.274
relative viability (NCI-H1650; first compound 0.005 µM): 0.257
relative viability (NCI-H1650; first compound 0.01581 µM): 0.234
relative viability (NCI-H1650; first compound 0.05 µM): 0.177
relative viability (NCI-H1650; first compound 0.1581 µM): 0.136
relative viability (NCI-H1650; first compound 0.5 µM): 0.122
relative viability (NCI-H441; first compound 0.005 µM): 0.545
relative viability (NCI-H441; first compound 0.01581 µM): 0.533
relative viability (NCI-H441; first compound 0.05 µM): 0.485
relative viability (NCI-H441; first compound 0.1581 µM): 0.324
relative viability (NCI-H441; first compound 0.5 µM): 0.293
relative viability (NCI-H2170; first compound 0.005 µM): 0.576
relative viability (NCI-H2170; first compound 0.01581 µM): 0.589
relative viability (NCI-H2170; first compound 0.05 µM): 0.533
relative viability (NCI-H2170; first compound 0.1581 µM): 0.244
relative viability (NCI-H2170; first compound 0.5 µM): 0.241
relative viability (PC-14; first compound 0.005 µM): 0.232
relative viability (PC-14; first compound 0.01581 µM): 0.234
relative viability (PC-14; first compound 0.05 µM): 0.18
relative viability (PC-14; first compound 0.1581 µM): 0.0381
relative viability (PC-14; first compound 0.5 µM): 0.0648
relative viability (NCI-H2023; first compound 0.005 µM): 0.315
relative viability (NCI-H2023; first compound 0.01581 µM): 0.219
relative viability (NCI-H2023; first compound 0.05 µM): 0.145
relative viability (NCI-H2023; first compound 0.1581 µM): 0.107
relative viability (NCI-H2023; first compound 0.5 µM): 0.0893

From the supplement of paper PMC10307832
